According to patent US20160074353A1, “USE OF PETROSELINIC ACID TO FIGHT AGAINST AESTHETIC DISORDERS OF THE BODY FIGURE” (L'OREAL, priority 2013, published 2016):

System: lipoxin A4
Assay: Synthesis/release of lipoxin A4 by stimulated (PMA/A23187 + DHA/EPA) mononuclear blood cells, LC-MS quantification, % modulation relative to the control
Format: cell-based
Conditions: % modulation vs stimulated control
Experimental: Mononuclear blood cells are cultured under 5% CO2 and at 37° C. in a serum-free medium for macrophages (SFM Macrophage; Invitrogen 12065074) for 24 hours.
After this step, the medium is replaced with the same fresh test medium also containing the active agents at the various doses for 30 minutes in the presence of the various products to be evaluated, as indicated in the table of results below. The inflammatory response was then triggered in the presence of phorbol myristate (0.05 μM) and calcium ionophore (1 μM) and of a lipid substrate mixture composed of docosahexaenoic acid (DHA—1 μg/mL) and eicosapentaenoic acid (EPA—1 μg/mL).
The supernatants were then collected after 2 hours of stimulation and frozen at −80° C. before preparation for analysis by mass spectrometry.
Experimental triplicates (three wells) were prepared per experimental condition. Into each culture plate was placed a control corresponding to cells stimulated with the PMA/A23187 mixture and/or with addition of the equimolar mixture of fatty acids.
The thawed supernatants were concentrated by solid-phase extraction (SPE) and taken up in methanol before spectrometric analysis. The analytical method used consists in separating the various analytes by high-pressure liquid chromatography as a function of their retention time and in quantifying them by mass spectrometry. […]

Molecule | Level of lipoxin A4 production (taurine 3.1 mg/ml) | Level of lipoxin A4 production (zinc gluconate 0.005 mg/ml) [%]
NCCS(=O)(=O)O [Taurine] | +38% | –
Zinc gluconate | – | −5
